Article PMC6934184, “Selective DNA-PKcs inhibition extends the therapeutic index of localized radiotherapy and chemotherapy” (The Journal of Clinical Investigation, 2019)

Molecular target: T1, PIK3CG (p110 gamma) (Homo sapiens, UniProt P48736)
T1 construct: purchased Thermo Fisher Scientific (Life Technologies) SelectScreen
Test: SelectScreen Adapta
Assay type: biochemical
Summary of the method: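 Percent values come from Thermo SelectScreen profiling of NU5455, combining activity and binding assays. CSF1R was run in Z'LYTE format at Km app ATP, and CAMK1 in Adapta format with ATP listed at 10.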

T1 sequence (P48736 whole entry): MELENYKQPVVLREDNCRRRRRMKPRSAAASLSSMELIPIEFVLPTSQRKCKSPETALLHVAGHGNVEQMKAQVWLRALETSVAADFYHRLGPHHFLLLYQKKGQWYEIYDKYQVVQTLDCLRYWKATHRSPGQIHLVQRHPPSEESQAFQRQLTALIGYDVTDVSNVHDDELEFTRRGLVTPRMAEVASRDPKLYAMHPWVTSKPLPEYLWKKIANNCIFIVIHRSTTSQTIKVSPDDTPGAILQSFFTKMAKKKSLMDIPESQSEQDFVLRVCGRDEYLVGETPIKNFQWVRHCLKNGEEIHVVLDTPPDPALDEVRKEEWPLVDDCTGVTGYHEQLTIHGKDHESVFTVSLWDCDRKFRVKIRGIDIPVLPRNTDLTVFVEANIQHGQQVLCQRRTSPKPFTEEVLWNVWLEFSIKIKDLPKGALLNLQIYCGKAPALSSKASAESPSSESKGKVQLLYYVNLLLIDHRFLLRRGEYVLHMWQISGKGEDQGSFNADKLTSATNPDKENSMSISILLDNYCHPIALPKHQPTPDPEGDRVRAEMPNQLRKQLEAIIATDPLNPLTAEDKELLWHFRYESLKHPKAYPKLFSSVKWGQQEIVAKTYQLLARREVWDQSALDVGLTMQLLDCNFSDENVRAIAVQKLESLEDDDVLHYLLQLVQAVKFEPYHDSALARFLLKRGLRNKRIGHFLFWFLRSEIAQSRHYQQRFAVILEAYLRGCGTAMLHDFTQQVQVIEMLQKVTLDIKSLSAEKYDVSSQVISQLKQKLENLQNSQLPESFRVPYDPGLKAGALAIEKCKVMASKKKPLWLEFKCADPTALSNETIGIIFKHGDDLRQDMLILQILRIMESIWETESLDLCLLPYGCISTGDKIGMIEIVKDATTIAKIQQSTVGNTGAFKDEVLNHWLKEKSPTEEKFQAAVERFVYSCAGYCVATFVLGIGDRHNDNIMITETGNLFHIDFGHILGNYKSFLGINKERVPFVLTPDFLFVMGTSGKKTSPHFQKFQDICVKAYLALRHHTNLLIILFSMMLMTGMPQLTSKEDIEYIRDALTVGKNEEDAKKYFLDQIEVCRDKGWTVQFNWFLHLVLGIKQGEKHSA

Question: `CN(C(=O)CN1CCOCC1)c1ccc2sc3c(-c4cccc5c(=O)cc(N6CC7CCC(C6)O7)oc45)cccc3c2c1` [NU5455] was tested. Which inhibition at 1 µM did it give?
Answer: 2.9%
